{
  "source": "patent US6245817A",
  "about": "“NPY5 receptor antagonists and methods for using same” (Bayer Corporation, priority 1999, dated 2001)",
  "key": {"Human NPY4/PP1 receptor": {"molecular_target": "Human NPY4/PP1 receptor (Homo sapiens, UniProt P50391)", "sequence (P50391 whole entry)": "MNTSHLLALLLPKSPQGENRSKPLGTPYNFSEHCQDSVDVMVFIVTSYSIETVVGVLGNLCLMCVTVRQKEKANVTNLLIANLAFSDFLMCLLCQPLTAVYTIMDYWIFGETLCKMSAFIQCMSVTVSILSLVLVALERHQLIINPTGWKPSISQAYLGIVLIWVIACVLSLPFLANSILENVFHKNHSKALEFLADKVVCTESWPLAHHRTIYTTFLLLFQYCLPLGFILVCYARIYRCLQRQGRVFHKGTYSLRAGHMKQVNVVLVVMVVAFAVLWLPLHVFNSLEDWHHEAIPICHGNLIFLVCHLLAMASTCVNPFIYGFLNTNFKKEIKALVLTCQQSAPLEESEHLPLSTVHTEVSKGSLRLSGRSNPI", "experiment": "Human NPY4/PP1 Receptor Binding Assay", "settings": "[125I]human PP; read-out: hNPY4 IC50"}, "Rat NPY5 Receptor [1]": {"molecular_target": "T1, Rat NPY5 Receptor (Rattus norvegicus, UniProt Q63634)", "T1 sequence (Q63634 1-445)": "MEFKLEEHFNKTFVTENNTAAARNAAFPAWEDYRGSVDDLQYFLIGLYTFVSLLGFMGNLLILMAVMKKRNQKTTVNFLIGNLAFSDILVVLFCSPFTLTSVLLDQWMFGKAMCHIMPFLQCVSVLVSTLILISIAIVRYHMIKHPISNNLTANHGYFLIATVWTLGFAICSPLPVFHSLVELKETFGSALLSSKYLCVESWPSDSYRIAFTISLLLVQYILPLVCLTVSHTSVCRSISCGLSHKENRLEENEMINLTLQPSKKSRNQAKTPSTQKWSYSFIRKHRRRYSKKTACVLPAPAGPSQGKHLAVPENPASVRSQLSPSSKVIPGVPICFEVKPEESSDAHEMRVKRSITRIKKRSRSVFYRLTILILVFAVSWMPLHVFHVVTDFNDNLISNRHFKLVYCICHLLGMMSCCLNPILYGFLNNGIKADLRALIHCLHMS", "experiment": "Rat NYP5 Cyclase Assay (In Vitro Functional Assay)", "format": "cell-based", "settings": "20 min, percentage of forskolin-stimulated adenylate cyclase, read-out: rNPY5 % FSAC (10 μM)", "procedure": "D. Rat NYP5 Cyclase Assay (In Vitro Functional Assay)\nCells stably expressing the rat NPY5 receptor are resuspended in serum-free DMEM containing 10 mM HEPES (pH 7.4) and 1 mM isobutylmethylxanthine (IBMX). 1 μM forskolin and drug dilution are then added to the cells. After a 20 minute incubation of the samples at 37° C., the assay is stopped by placing the samples in boiling water for 3 minutes. The cAMP produced in each sample is quantitated with a radioimmunoassay kit (NEN Dupont). Data are expressed as a percentage of forskolin-stimulated adenylate cyclase."}, "Human NPY2 receptor": {"molecular_target": "T2, Human NPY2 receptor (Homo sapiens, UniProt P49146)", "T2 sequence (P49146 1-381)": "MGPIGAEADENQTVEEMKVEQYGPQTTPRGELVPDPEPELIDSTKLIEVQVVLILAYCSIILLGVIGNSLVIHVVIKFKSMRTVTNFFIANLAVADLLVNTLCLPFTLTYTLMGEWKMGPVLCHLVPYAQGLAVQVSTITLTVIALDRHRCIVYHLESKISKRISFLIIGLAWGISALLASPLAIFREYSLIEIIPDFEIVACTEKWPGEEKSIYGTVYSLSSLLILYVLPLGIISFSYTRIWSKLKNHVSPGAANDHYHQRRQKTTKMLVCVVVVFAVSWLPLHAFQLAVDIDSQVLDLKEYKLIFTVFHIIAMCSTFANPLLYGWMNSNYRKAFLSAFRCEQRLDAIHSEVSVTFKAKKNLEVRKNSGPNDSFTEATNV", "experiment": "Human NPY2 Receptor Binding Assay", "settings": "[125I]PYY; read-out: hPPY2 IC50"}, "Human NPY1 Receptor": {"molecular_target": "T3, Human NPY1 Receptor (Homo sapiens, UniProt P25929)", "T3 sequence (P25929 1-384)": "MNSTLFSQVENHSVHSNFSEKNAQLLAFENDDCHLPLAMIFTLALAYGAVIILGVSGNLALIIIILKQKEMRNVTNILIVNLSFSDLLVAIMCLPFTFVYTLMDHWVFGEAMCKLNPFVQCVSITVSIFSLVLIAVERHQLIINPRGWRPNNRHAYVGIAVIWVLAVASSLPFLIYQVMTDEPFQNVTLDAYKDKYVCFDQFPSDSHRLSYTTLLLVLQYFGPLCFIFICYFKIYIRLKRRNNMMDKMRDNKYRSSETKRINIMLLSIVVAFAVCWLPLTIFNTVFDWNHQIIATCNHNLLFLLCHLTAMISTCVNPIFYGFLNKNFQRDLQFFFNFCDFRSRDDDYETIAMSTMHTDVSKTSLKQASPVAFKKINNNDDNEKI", "experiment": "Human NPY1 Receptor Binding Assay", "settings": "SK-N-MC cells, [125I]PYY; read-out: hNPY1 IC50"}, "Human NPY5 Receptor": {"molecular_target": "T4, Human NPY5 Receptor (Homo sapiens, UniProt Q15761)", "T4 sequence (Q15761 1-445)": "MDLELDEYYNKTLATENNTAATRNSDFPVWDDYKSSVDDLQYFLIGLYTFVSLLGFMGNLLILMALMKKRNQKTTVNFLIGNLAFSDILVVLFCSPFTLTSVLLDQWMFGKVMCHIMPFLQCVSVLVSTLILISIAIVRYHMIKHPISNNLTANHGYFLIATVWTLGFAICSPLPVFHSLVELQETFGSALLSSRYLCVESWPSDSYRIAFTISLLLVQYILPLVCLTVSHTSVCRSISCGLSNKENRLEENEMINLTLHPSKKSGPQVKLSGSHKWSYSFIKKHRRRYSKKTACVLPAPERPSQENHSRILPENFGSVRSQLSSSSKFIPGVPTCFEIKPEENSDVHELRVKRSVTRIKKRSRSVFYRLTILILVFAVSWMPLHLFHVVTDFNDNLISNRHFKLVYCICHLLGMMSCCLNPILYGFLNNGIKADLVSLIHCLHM", "experiment": "Human NPY5 Receptor Binding Assay", "settings": "[125I]PYY; read-out: hNPY5 IC50"}, "Rat NPY5 Receptor [2]": {"molecular_target": "T1, Rat NPY5 Receptor", "experiment": "Rat NPY5 Receptor Binding Assay", "settings": "[125I]PYY; read-out: rNPY5 IC50"}},
  "note": "Counter-ions that a name gives are not always drawn.",
  "data": [
    {"smiles": "Cn1ccnc1SCC(=O)Nc1ccc(C2CCCCC2)cc1", "note": "[Compound 3, N-(4-Cyclohexyl-phenyl)-2-(1-methyl-1H-imidazol-2-ylsulfanyl)-acetamide Hydrochloride]", "values": [
      {"measurement": "IC50", "setting": "Human NPY4/PP1 receptor", "result": "> 5000", "unit": "nM"},
      {"measurement": "activity at 10 µM", "setting": "Rat NPY5 Receptor [1]", "result": 103, "unit": "%"},
      {"measurement": "IC50", "setting": "Human NPY2 receptor", "result": "> 5000", "unit": "nM"},
      {"measurement": "IC50", "setting": "Human NPY1 Receptor", "result": "> 5000", "unit": "nM"},
      {"measurement": "IC50", "setting": "Human NPY5 Receptor", "result": 160, "unit": "nM"},
      {"measurement": "IC50", "setting": "Rat NPY5 Receptor [2]", "result": 120, "unit": "nM"}
    ]},
    {"smiles": "Cn1nnnc1SCC(=O)Nc1ccc(C2CCCCC2)cc1", "note": "[Compound 8, N-(4-Cyclohexyl-phenyl)-2-(1-methyl-1H-tetrazol-5-ylsulfanyl)-acetamide]", "values": [
      {"measurement": "IC50", "setting": "Human NPY4/PP1 receptor", "result": "> 5000", "unit": "nM"},
      {"measurement": "activity at 10 µM", "setting": "Rat NPY5 Receptor [1]", "result": 99, "unit": "%"},
      {"measurement": "IC50", "setting": "Human NPY2 receptor", "result": "> 5000", "unit": "nM"},
      {"measurement": "IC50", "setting": "Human NPY1 Receptor", "result": "> 5000", "unit": "nM"},
      {"measurement": "IC50", "setting": "Human NPY5 Receptor", "result": 160, "unit": "nM"},
      {"measurement": "IC50", "setting": "Rat NPY5 Receptor [2]", "result": 29, "unit": "nM"}
    ]},
    {"smiles": "Nc1nnc(SCC(=O)Nc2ccc(C3CCCCC3)cc2)s1", "note": "[Compound 51, 2-(-Amino-[1,3,4]thiadiazol-2-ylsulfanyl)-N-4-cydohexyl-phenyl-cetamide]", "values": [
      {"measurement": "activity at 10 µM", "setting": "Rat NPY5 Receptor [1]", "result": 105, "unit": "%"},
      {"measurement": "IC50", "setting": "Human NPY2 receptor", "result": "> 5000", "unit": "nM"},
      {"measurement": "IC50", "setting": "Human NPY5 Receptor", "result": 220, "unit": "nM"}
    ]}
  ]
}
